This experiment relates to meniscal release model of osteoarthritis. As to the kind of experiment: Meniscal release model of osteoarthritis in dogs (Example 8). The class given is in vivo. To be noted: 5 mg/kg daily. On the procedure: Twenty intact adult female hounds underwent surgical meniscal release of the right stifle and were maintained for at least 8 weeks to allow osteoarthritis to develop. […] Animals were randomized into three groups: negative control (n=6), positive control (n=7) treated with 5 mg/kg firocoxib daily, and grapiprant (n=7) dosed once daily at 30 mg/kg. Dosing was based on baseline bodyweight.
Baseline physical exams, bodyweights, hematology, serum chemistry and urinalysis were obtained on study Day −1 and repeated on Day 13. Orthopedic assessments were conducted on Day −1, Day 2, Day 6, and Day 13, including a kinetics assessment using the GAITRite system to determine left hindlimb: right hindlimb ratios for peak pressure, stride length, step length, and stance time, a 5-point scale lameness evaluation, VAS assessments of right hindlimb function, right stifle pain and effusion, and comfortable range of motion measurements of both stifles using a goniometer.

For `CC1(C)OC(=O)C(OCC2CC2)=C1c1ccc(S(C)(=O)=O)cc1` [firocoxib, reference compound], the “peak pressure ratios, lameness and function scores compared to baseline” value is “improved statistically significant mean peak pressure ratios on Day 13 and in mean lameness and mean function scores on Day 6 and 13 compared to baseline”.

Values taken from patent US12109218B2, “Compositions of grapiprant and methods for using the same” (ARATANA THERAPEUTICS, INC., priority 2014, dated 2024).
